According to PubChem BioAssay (NCI):
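In this assay, cells in 96-well plates receive the compound at five concentrations for 48 hours. Endpoints are linearly interpolated between the surrounding concentrations. TGI: concentration producing complete growth inhibition.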

Assays:
Test in all cases: NCI tumour cell line growth inhibition, 48 h
786-0 renal = tested on: 786-0 renal
A498 renal = tested on: A498 renal
A549 NSCLC = tested on: A549 NSCLC
ACHN renal = tested on: ACHN renal
BT-549 breast = tested on: BT-549 breast
CAKI-1 renal = tested on: CAKI-1 renal
CCRF-CEM leukemia = tested on: CCRF-CEM leukemia
COLO 205 colon = tested on: COLO 205 colon
DU-145 prostate = tested on: DU-145 prostate
EKVX NSCLC = tested on: EKVX NSCLC
HCC-2998 colon = tested on: HCC-2998 colon
HCT-116 colon = tested on: HCT-116 colon
HCT-15 colon = tested on: HCT-15 colon
HL-60(TB) leukemia = tested on: HL-60(TB) leukemia
HOP-62 NSCLC = tested on: HOP-62 NSCLC
HOP-92 NSCLC = tested on: HOP-92 NSCLC
HS 578T breast = tested on: HS 578T breast
HT29 colon = tested on: HT29 colon
IGROV1 ovarian = tested on: IGROV1 ovarian
K-562 leukemia = tested on: K-562 leukemia
KM12 colon = tested on: KM12 colon
LOX IMVI melanoma = tested on: LOX IMVI melanoma
M14 melanoma = tested on: M14 melanoma
MALME-3M melanoma = tested on: MALME-3M melanoma
MCF7 breast = tested on: MCF7 breast
MDA-MB-231 breast = tested on: MDA-MB-231 breast
MDA-MB-435 = tested on: MDA-MB-435
MDA-N = tested on: MDA-N
MOLT-4 leukemia = tested on: MOLT-4 leukemia
NCI-H226 lung = tested on: NCI-H226 lung
NCI-H23 lung = tested on: NCI-H23 lung
NCI-H460 lung = tested on: NCI-H460 lung
NCI-H522 lung = tested on: NCI-H522 lung
NCI/ADR-RES ovarian = tested on: NCI/ADR-RES ovarian
OVCAR-3 ovarian = tested on: OVCAR-3 ovarian
OVCAR-4 ovarian = tested on: OVCAR-4 ovarian
OVCAR-5 ovarian = tested on: OVCAR-5 ovarian
OVCAR-8 ovarian = tested on: OVCAR-8 ovarian
PC-3 prostate = tested on: PC-3 prostate
RPMI-8226 leukemia = tested on: RPMI-8226 leukemia
RXF 393 renal = tested on: RXF 393 renal
SF-268 CNS = tested on: SF-268 CNS
SF-295 CNS = tested on: SF-295 CNS
SK-MEL-2 melanoma = tested on: SK-MEL-2 melanoma
SK-MEL-28 melanoma = tested on: SK-MEL-28 melanoma
SK-MEL-5 melanoma = tested on: SK-MEL-5 melanoma
SK-OV-3 ovarian = tested on: SK-OV-3 ovarian
SN12C renal = tested on: SN12C renal
SNB-19 CNS = tested on: SNB-19 CNS
SNB-75 CNS = tested on: SNB-75 CNS
SW-620 colon = tested on: SW-620 colon
T-47D breast = tested on: T-47D breast
U251 CNS = tested on: U251 CNS
UACC-257 melanoma = tested on: UACC-257 melanoma
UACC-62 melanoma = tested on: UACC-62 melanoma
UO-31 renal = tested on: UO-31 renal

Measured: TGI

CC1(CCCO)CCCCCCCCCC(C)(CCCO)C1=O (stereo unspecified)
> 100 µM: 786-0 renal | A498 renal | A549 NSCLC | ACHN renal | BT-549 breast | CAKI-1 renal | CCRF-CEM leukemia | COLO 205 colon | DU-145 prostate | EKVX NSCLC | HCC-2998 colon | HCT-116 colon | HCT-15 colon | HL-60(TB) leukemia | HOP-62 NSCLC | HOP-92 NSCLC | HS 578T breast | HT29 colon | IGROV1 ovarian | K-562 leukemia | KM12 colon | LOX IMVI melanoma | M14 melanoma | MALME-3M melanoma | MCF7 breast | MDA-MB-231 breast | MDA-MB-435 | MDA-N | MOLT-4 leukemia | NCI-H226 lung | NCI-H23 lung | NCI-H460 lung | NCI-H522 lung | NCI/ADR-RES ovarian | OVCAR-3 ovarian | OVCAR-4 ovarian | OVCAR-5 ovarian | OVCAR-8 ovarian | PC-3 prostate | RPMI-8226 leukemia | RXF 393 renal | SF-268 CNS | SF-295 CNS | SK-MEL-2 melanoma | SK-MEL-28 melanoma | SK-MEL-5 melanoma | SK-OV-3 ovarian | SN12C renal | SNB-19 CNS | SNB-75 CNS | SW-620 colon | T-47D breast | U251 CNS | UACC-257 melanoma | UACC-62 melanoma | UO-31 renal
